Data taken from patent publication US8344003B2, “2-pyridinecarboxamide derivatives” (MSD K. K., priority 2003, dated 2013).

Target: T1, recombinant human liver GK (Homo sapiens, UniProt P35557)
T1 construct: made in house; host or cells: E. coli
T1 sequence (P35557 1-466 isoform P35557-2): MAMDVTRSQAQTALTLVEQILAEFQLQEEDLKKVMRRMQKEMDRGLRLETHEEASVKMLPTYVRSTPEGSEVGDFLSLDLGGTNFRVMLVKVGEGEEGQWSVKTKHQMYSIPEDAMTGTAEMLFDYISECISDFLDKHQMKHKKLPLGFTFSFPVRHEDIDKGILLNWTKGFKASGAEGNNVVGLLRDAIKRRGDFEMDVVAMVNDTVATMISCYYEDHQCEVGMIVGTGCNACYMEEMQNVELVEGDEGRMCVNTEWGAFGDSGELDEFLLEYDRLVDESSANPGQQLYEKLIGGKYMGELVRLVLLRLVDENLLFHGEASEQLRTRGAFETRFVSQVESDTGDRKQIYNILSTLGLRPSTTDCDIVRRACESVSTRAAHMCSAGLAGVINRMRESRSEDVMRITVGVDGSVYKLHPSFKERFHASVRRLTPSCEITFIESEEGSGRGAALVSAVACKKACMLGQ
Assay: glucokinase (GK) activation assay, Thio-NADH generation via reporter enzyme G6PDH, absorbance at 405 nm
Format: biochemical
Conditions: final glucose concentration 2.5 mM, 30° C.; for EC50: GK activation; for Emax: OD value of DMSO control regarded as 100%
Protocol: The glucokinase activity can be determined without directly measuring glucose-6-phosphate by measuring the amount of Thio-NADH generated during the production of phosphogluconolactone from glucose-6-phosphate by a reporter enzyme glucose-6-phosphate dehydrogenase. Thus, the degree of the glucokinase activity can be determined.
The recombinant human liver GK used in this assay expressed as a FLAG fusion protein in E. coli, was purified on […] M2 AFFINITY GEL (Sigma).
Assay was carried out at 30° C. in a 96-well plate. In the plate was distributed 69 μl each of assay buffer (25 mM Hepes Buffer: pH=7.2, 2 mM MgCl2, 1 mM ATP, 0.5 mM TNAD, 1 mM dithiothreitol), to which was added 1 μl of a DMSO solution of the compound or DMSO as control. Then, 20 μl of pre-ice-cooled enzyme mixture (FLAG-GK, 20 U/ml G6PDH) was distributed thereto, to which was added 10 μl of 25 mM glucose as substrate to initiate the reaction (final glucose concentration=2.5 mM).
FLAG-GK was added so that the increase of absorbance after 5 minutes fell between 0.05 to 0.1 in the presence of 1% DMSO.
The OD values of the respective compounds to be evaluated were measured in the respective concentrations, wherein the OD value of DMSO as control was regarded as 100%. From the OD values at the respective concentrations, Emax (%) and EC50 (μM) were calculated and used as indicators of the GK activation capability of the compounds. According to the above assay, the GK activation capability of the compounds in the present invention was determined.

| EC50 | Emax | Compound |
| --- | --- | --- |
| 50 nM | 997% | COc1ccc(Sc2ccc(Sc3nnc[nH]3)nc2C(=O)Nc2nccs2)cc1 [Production Example 1] |
| 120 nM | 818% | Cc1ccc(Sc2ccc(Sc3nnc[nH]3)nc2C(=O)Nc2nccs2)cn1 [Production Example 30, 3-(6-methyl-pyridine-3-yl-sulfanyl)-6-(4H-[1,2,4]triazole-3-yl-sulfanyl)-N-(thiazole-2-yl)-2-pyridine carboxamide] |
